{
  "source": "patent US20090022687A1",
  "about": "“Novel Pharmaceuticals That Use Anti-HLA Antibodies” (Chugai Seiyaku Kabushiki Kaisha, priority 2005, published 2009)",
  "molecules": {"B1": {"name": "IFN-α: interferon α, OIF 2,500,000 IU, Otsuka Pharmaceutical; amino acid sequence SEQ ID NO: 1 (protein, listed as Homo sapiens)", "chain": "MASPFALLMVLVVLSCKSSCSLGCDLPETHSLDNRRTLMLLAQMSRISPSSCLMDRHDFGFPQEEFDGNQFQKAPAISVLHELIQQIFNLFTTKDSSAAWDEDLLDKFCTELYQQLNDLEACVMQEERVGETPLMNADSILAVKKYFRRITLYLTEKKYSPCAWEVVRAEIMRSLSLSTNLQERLRRKE"}, "B2": {"name": "IFN-γ: interferon γ, Ogamma 100, Otsuka Pharmaceutical; amino acid sequence SEQ ID NO: 3 (protein, listed as Homo sapiens)", "chain": "MKYTSYILAFQLCIVLGSLGCYCQDPYVKEAENLKKYFNAGHSDVADNGTLFLGILKNWKEESDRKIMQSQIVSFYFKLFKNFKDDQSIQKSVETIKEDMNVKFFNSNKKKRDDFEKLTNYSVTDLNVQRKAIHELIQVMAELSPAAKTGKRKRSQMLFRGRRASQ"}},
  "key": {"[1]": {"test_system": "myeloma cell line RPMI 8226", "test": "Effects of signal transduction inhibitors on cell injury by 2D7-DB", "details": "60 minutes of pretreatment, 2D7-DB 1 μg/mL", "procedure": "This time, the present inventors further examined the antitumor mechanism of 2D7-DB. First, 60 minutes of pretreatment was performed using various signal transduction inhibitors, and their effects on cell injury of the myeloma cell line RPMI 8226 after 2D7-DB (1 μg/mL) addition were examined (FIG. 6A)."}, "[2]": {"test_system": "myeloma cell line ARH-77", "test": "Actin staining, localization of 2D7-DB and actin", "format": "cell-based, human", "details": "ARH-77, 30 minutes of pretreatment with inhibitor 0,1 μM", "procedure": "Furthermore, actin staining of the cells was performed to examine the localization of 2D7-DB (green) and actin (red) (FIG. 6B). […] On the other hand, actin aggregation due to 2D7-DB was not observed in the bone marrow stromal cell line KM102 expressing HLA-A. Thus, actin aggregation effect and cytotoxic activity by 2D7-DB were considered specific to myeloma cells and lymphoid cells, and while 2D7-DB is useful for myeloma and autoimmune diseases, it was considered to have little effect on normal tissues."}, "[3]": {"test_system": "HLA-A expression in IM-9 cells", "test": "Effects of IFNs on HLA-A expression (flow cytometry using 2D7)", "format": "cell-based, human", "details": "IFN 100 U/mL for 48 hours", "procedure": "IM-9 cells were treated with IFN-α (100 U/mL) or IFN-γ (100 U/mL) for 48 hours. Cell surface expression of HLA-A was analyzed by flow cytometry using 2D7. The staining properties of IFN-treated cells are shown by tick lines, and those of untreated cells are shown by solid lines. Negative control staining properties are shown by dotted lines. (B) A graph indicating the enhancement of 2D7-DB-mediated cytotoxicity by IFN is shown. IM-9 cells were treated with IFN-α (100 U/mL) or IFN-γ (100 U/mL) for 48 hours, and then cultured with 2D7-DB (0.1 or 1 μg/mL) for 24 hours. Cell viabilities were determined by WST-8 assays.\nSince cell surface expression of HLA class I is enhanced by IFN stimulation, effects of IFNs on HLA-A expression and 2D7-DB-mediated cytotoxicity were examined using IM-9 cells. After treating IM-9 cells with IFN-α (100 U/mL, OIF 2,500,000 IU, Otsuka Pharmaceutical) or IFN-γ (100 U/mL, Ogamma 100, Otsuka Pharmaceutical) for 48 hours, flow cytometry was performed. […]\nCell surface expression analysis of HLA class I by flow cytometry was performed as follows using FITC-labeled 2D7 mAb or FITC-labeled anti-HLA-ABC common region mAb (Chemicon, San Diego, Calif.). […] Next, the cells were washed twice with PBS, and analyzed using an EPICS XL flow cytometer (Beckman Coulter, Japan). […] HLA class I expression levels were evaluated as GeoMFI using the CellQuest software (BID Biosciences)."}},
  "data": [
    {"molecule": "C=C1[C@@H](C)[C@H]2[C@H](Cc3ccccc3)NC(=O)[C@]23[C@H](OC(C)=O)/C=C/[C@@](C)(O)C(=O)[C@@H](C)C/C=C/[C@H]3[C@@H]1O", "note": "[cytochalasin D]", "values": [
      {"measurement": "effect on cytotoxicity of 2D7-DB", "setting": "[1]; inhibitor 1 μM", "value": "almost completely suppressed"}
    ]},
    {"molecule": "C/C1=C/C(=O)O[C@@H]2C[C@@H](CC[C@H](C)/C=C\\C=C\\CC1)O[C@@](O)([C@@H]1CSC(=O)N1)C2", "note": "[latrunculin A]", "values": [
      {"measurement": "effect on cytotoxicity of 2D7-DB", "setting": "[1]; inhibitor 0.1 μM", "value": "almost completely suppressed"},
      {"measurement": "actin aggregation after 2D7-DB addition", "setting": "[2]", "value": "aggregation was not observed"}
    ]},
    {"molecule": "COC[C@H]1OC(=O)c2coc3c2[C@@]1(C)C1=C(C3=O)[C@@H]2CCC(=O)[C@@]2(C)C[C@H]1OC(C)=O", "note": "[Wortmannin]", "values": [
      {"measurement": "effect on cytotoxicity of 2D7-DB", "setting": "[1]; inhibitor 10 μM", "value": "did not show effects"}
    ]},
    {"molecule": "B1", "values": [
      {"measurement": "HLA-A expression", "setting": "[3]", "value": "up-regulated"}
    ]},
    {"molecule": "B2", "values": [
      {"measurement": "HLA-A expression", "setting": "[3]", "value": "up-regulated"}
    ]}
  ]
}
